Source: ChEMBL document CHEMBL5331076, “Streptogramin A derivatives as mitochondrial translation inhibitors to suppress glioblastoma stem cell growth” (Eur J Med Chem, 2023)
Activity calls are given as the source filed them. The calls are words filed in the database; no cut-off is given here. *1 amine or outer side, *2 acyl side, *3 side chain or, on linkers, in order; H or OH if unused. Where a SMILES comes first, the peptide text is derived from it. Bridges are numbered along the chain shown (N, C = ends). [ ]: non-standard residue; d: D form. The star is where a group is joined. X1 = O=C1C[C@@H](C(=O)[*:2])N([*:1])C[C@H]1CS[C@@H]1CN2CCC1CC2; NMePhe(4-NMe2) = CN[C@@H](Cc1ccc(N(C)C)cc1)C(=O)O; Picolinoyl(3-OH) = O=C(c1ncccc1O)*; Phg = N[C@H](C(=O)O)c1ccccc1; dAbu = CC[C@@H](N)C(=O)O

Key:
[1] = tested on: VIPI; assay: Growth inhibition of human VIPI cells incubated for 48 hrs by Hoechst 33342/PI staining based analysis; format: functional
[2] = tested on: COMI; assay: Inhibition of mitochondrial translation in human COMI cells assessed as decrease in COX2 expression level at 0.5 uM incubated for 24 hrs in the presence of quinupristin and emetine by [35S]-methionine labelling based SDS-PAGE analysis; format: functional, cell-based
[3] = tested on: COMI; assay: Inhibition of mitochondrial translation in human COMI cells assessed as decrease in ND3 expression level at 0.5 to 5 uM incubated for 48 hrs by immunoblotting analysis; format: functional, cell-based; details: dose 0.5-5 µM
[4] = tested on: COMI; assay: Inhibition of mitochondrial translation in human COMI cells assessed as decrease in COX1 expression level at 0.38 uM incubated for 24 hrs in the presence of emetine by [35S]-methionine labelling based SDS-PAGE analysis; format: functional, cell-based
[5] = tested on: COMI; assay: Potency index, ratio of temozolomide GI50 to test compound GI50 for human COMI cells in the presence of quinupristin; format: functional
[6] = tested on: COMI; assay: Growth inhibition of human COMI cells in the presence of quinupristin; format: functional
[7] = tested on: COMI; assay: Growth inhibition of human COMI cells incubated for 48 hrs in the presence of quinupristin by Hoechst 33342/PI staining based analysis; format: functional
[8] = tested on: COMI; assay: Inhibition of mitochondrial translation in human COMI cells assessed as decrease in COX1 expression level at 0.5 to 5 uM incubated for 48 hrs in the presence of quinupristin by immunoblotting analysis; format: functional, cell-based; details: dose 0.5-5 µM
[9] = tested on: VIPI; assay: Growth inhibition of human VIPI cells incubated for 48 hrs in the presence of quinupristin by Hoechst 33342/PI staining based analysis; format: functional
[10] = tested on: COMI; assay: Inhibition of mitochondrial translation in human COMI cells assessed as decrease in COX2 expression level at 0.38 uM incubated for 24 hrs in the presence of emetine by [35S]-methionine labelling based SDS-PAGE analysis; format: functional, cell-based
[11] = tested on: COMI; assay: Inhibition of mitochondrial translation in human COMI cells assessed as decrease in COX2 expression level at 0.5 to 5 uM incubated for 48 hrs by immunoblotting analysis; format: functional, cell-based; details: dose 0.5-5 µM
[12] = Potency index, ratio of temozolomide GI50 to test compound GI50 for human VIPI cells in the presence of quinupristin; format: functional
[13] = tested on: COMI; assay: Inhibition of mitochondrial translation in human COMI cells assessed as increase in COX4 expression level at 0.5 to 5 uM incubated for 48 hrs by immunoblotting analysis; format: functional, cell-based; details: dose 0.5-5 µM
[14] = tested on: COMI; assay: Inhibition of mitochondrial translation in human COMI cells assessed as decrease in ND3 expression level at 0.5 uM incubated for 24 hrs in the presence of quinupristin and emetine by [35S]-methionine labelling based SDS-PAGE analysis; format: functional, cell-based
[15] = tested on: VIPI; assay: Growth inhibition of human VIPI cells in the presence of quinupristin; format: functional
[16] = tested on: COMI; assay: Inhibition of mitochondrial translation in human COMI cells assessed as decrease in COX2 expression level at 0.5 to 5 uM incubated for 48 hrs in the presence of quinupristin by immunoblotting analysis; format: functional, cell-based; details: dose 0.5-5 µM
[17] = tested on: COMI; assay: Inhibition of mitochondrial translation in human COMI cells assessed as decrease in ND3 expression level at 0.38 uM incubated for 24 hrs in the presence of emetine by [35S]-methionine labelling based SDS-PAGE analysis; format: functional, cell-based
[18] = tested on: COMI; assay: Inhibition of mitochondrial translation in human COMI cells assessed as decrease in COX1 expression level at 0.5 to 5 uM incubated for 48 hrs by immunoblotting analysis; format: functional, cell-based; details: dose 0.5-5 µM
[19] = tested on: COMI; assay: Inhibition of mitochondrial translation in human COMI cells assessed as increase in COX4 expression level at 0.5 to 5 uM incubated for 48 hrs in the presence of quinupristin by immunoblotting analysis; format: functional, cell-based; details: dose 0.5-5 µM
[20] = tested on: COMI; assay: Inhibition of mitochondrial translation in human COMI cells assessed as decrease in COX1 expression level at 0.5 uM incubated for 24 hrs in the presence of quinupristin and emetine by [35S]-methionine labelling based SDS-PAGE analysis; format: functional, cell-based
[21] = tested on: COMI; assay: Inhibition of mitochondrial translation in human COMI cells assessed as decrease in ND3 expression level at 0.5 to 5 uM incubated for 48 hrs in the presence of quinupristin by immunoblotting analysis; format: functional, cell-based; details: dose 0.5-5 µM
[22] = tested on: COMI; assay: Growth inhibition of human COMI cells incubated for 48 hrs by Hoechst 33342/PI staining based analysis; format: functional
[23] = tested on: VIPI; assay: Growth inhibition of human VIPI cells in the presence of dalfopristin; format: functional
[24] = tested on: COMI; assay: Inhibition of mitochondrial translation in human COMI cells assessed as decrease in COX1 expression level at 0.5 to 5 uM incubated for 48 hrs in the presence of dalfopristin by immunoblotting analysis; format: functional, cell-based; details: dose 0.5-5 µM
[25] = tested on: COMI; assay: Inhibition of mitochondrial translation in human COMI cells assessed as decrease in COX2 expression level at 0.5 to 5 uM incubated for 48 hrs in the presence of dalfopristin by immunoblotting analysis; format: functional, cell-based; details: dose 0.5-5 µM
[26] = tested on: COMI; assay: Inhibition of mitochondrial translation in human COMI cells assessed as decrease in COX1 expression level at 0.5 uM incubated for 24 hrs in the presence of dalfopristin and emetine by [35S]-methionine labelling based SDS-PAGE analysis; format: functional, cell-based
[27] = tested on: COMI; assay: Inhibition of mitochondrial translation in human COMI cells assessed as decrease in ND3 expression level at 0.5 uM incubated for 24 hrs in the presence of dalfopristin and emetine by [35S]-methionine labelling based SDS-PAGE analysis; format: functional, cell-based
[28] = tested on: COMI; assay: Inhibition of mitochondrial translation in human COMI cells assessed as decrease in COX2 expression level at 0.5 uM incubated for 24 hrs in the presence of dalfopristin and emetine by [35S]-methionine labelling based SDS-PAGE analysis; format: functional, cell-based
[29] = tested on: COMI; assay: Inhibition of mitochondrial translation in human COMI cells assessed as decrease in ND3 expression level at 0.38 to 2 uM incubated for 24 hrs in the presence of emetine by [35S]-methionine labelling based SDS-PAGE analysis; format: functional, cell-based; details: dose 0.38-2 µM
[30] = tested on: COMI; assay: Potency index, ratio of temozolomide GI50 to test compound GI50 for human COMI cells in the presence of dalfopristin; format: functional
[31] = tested on: COMI; assay: Growth inhibition of human COMI cells in the presence of dalfopristin; format: functional
[32] = Potency index, ratio of temozolomide GI50 to test compound GI50 for human VIPI cells in the presence of dalfopristin; format: functional
[33] = tested on: COMI; assay: Inhibition of mitochondrial translation in human COMI cells assessed as decrease in COX1 expression level at 0.38 to 2 uM incubated for 24 hrs in the presence of emetine by [35S]-methionine labelling based SDS-PAGE analysis; format: functional, cell-based; details: dose 0.38-2 µM
[34] = tested on: COMI; assay: Inhibition of mitochondrial translation in human COMI cells assessed as decrease in COX2 expression level at 0.38 to 2 uM incubated for 24 hrs in the presence of emetine by [35S]-methionine labelling based SDS-PAGE analysis; format: functional, cell-based; details: dose 0.38-2 µM
[35] = tested on: VIPI; assay: Growth inhibition of human VIPI cells incubated for 48 hrs in the presence of dalfopristin by Hoechst 33342/PI staining based analysis; format: functional
[36] = tested on: COMI; assay: Inhibition of mitochondrial translation in human COMI cells assessed as decrease in ND3 expression level at 0.5 to 5 uM incubated for 48 hrs in the presence of dalfopristin by immunoblotting analysis; format: functional, cell-based; details: dose 0.5-5 µM
[37] = tested on: COMI; assay: Inhibition of mitochondrial translation in human COMI cells assessed as increase in COX4 expression level at 0.5 to 5 uM incubated for 48 hrs in the presence of dalfopristin by immunoblotting analysis; format: functional, cell-based; details: dose 0.5-5 µM
[38] = tested on: COMI; assay: Growth inhibition of human COMI cells incubated for 48 hrs in the presence of dalfopristin by Hoechst 33342/PI staining based analysis; format: functional

CCN(CC)CCS(=O)(=O)[C@@H]1CCN2C(=O)c3coc(n3)CC(=O)C[C@H](O)/C=C(C)/C=C/CNC(=O)/C=C/[C@@H](C)[C@@H](C(C)C)OC(=O)[C@@H]12 [DALFOPRISTIN]
GI50 [1]: 16.2 µM
inhibition [2]: Active
inhibition [3]: Active
inhibition [4]: Active
RatioGI50 [5]: 15
GI50 [6]: 6.5 µM
GI50 [7]: 6.5 µM
inhibition [8]: Active
GI50 [9]: 20.2 µM
inhibition [10]: Active
inhibition [11]: Active
RatioGI50 [12]: 15
inhibition [13]: Active
inhibition [14]: Active
GI50 [15]: 20.2 µM
inhibition [16]: Active
inhibition [17]: Active
inhibition [18]: Active
inhibition [19]: Active
inhibition [20]: Active
inhibition [21]: Active
GI50 [22]: 8.6 µM

CC[C@H]1NC(=O)[C@@H](NC(=O)c2ncccc2O)[C@@H](C)OC(=O)[C@H](c2ccccc2)NC(=O)[C@@H]2CC(=O)[C@H](CS[C@@H]3CN4CCC3CC4)CN2C(=O)[C@H](Cc2ccc(N(C)C)cc2)N(C)C(=O)[C@@H]2CCCN2C1=O [QUINUPRISTIN] ({Picolinoyl(3-OH)}-T[dAbu]P[NMePhe(4-NMe2)][X1][Phg]; ester 1-C)
GI50 [1]: 21.4 µM
inhibition [3]: inactive
GI50 [23]: 20.2 µM
inhibition [24]: Active
inhibition [25]: Active
inhibition [26]: Active
inhibition [27]: Active
inhibition [11]: inactive
inhibition [28]: Active
inhibition [29]: inactive
RatioGI50 [30]: 15
GI50 [31]: 6.5 µM
inhibition [13]: inactive
RatioGI50 [32]: 15
inhibition [33]: inactive
inhibition [18]: inactive
inhibition [34]: inactive
GI50 [35]: 20.2 µM
inhibition [36]: Active
inhibition [37]: Active
GI50 [22]: 3 µM
GI50 [38]: 6.5 µM
